Data taken from ChEMBL document CHEMBL4507310, “Data for DCP probe A-1211212” (2021).

Tests used:
[1] = target: Mitogen-activated protein kinase kinase kinase 19 (Homo sapiens) (UniProt Q56UN5); settings: Compound concentration 1000.0 nM
[2] = target: TRAF2 and NCK-interacting protein kinase (Homo sapiens) (UniProt Q9UKE5); settings: Compound concentration 1000.0 nM
[3] = target: Macrophage colony-stimulating factor 1 receptor (Homo sapiens) (UniProt P07333); settings: Compound concentration 1000.0 nM
[4] = tested on: Epidermal growth factor receptor (Homo sapiens), P00533 [G719S]; settings: Compound concentration 1000.0 nM
[5] = target: Epithelial discoidin domain-containing receptor 1 (Homo sapiens) (UniProt Q08345); settings: Compound concentration 1000.0 nM
[6] = target: Angiotensin-converting enzyme (Homo sapiens) (UniProt P12821); experiment: ACE (h) Eurofins-Cerep enzyme and uptake assay; settings: Compound concentration 10.0 uM
[7] = target: Glycogen synthase kinase-3 beta (Homo sapiens) (UniProt P49841); settings: Compound concentration 1000.0 nM
[8] = target: Ribosomal protein S6 kinase alpha-2 (Homo sapiens) (UniProt Q15349); settings: Compound concentration 1000.0 nM
[9] = tested on: Mast/stem cell growth factor receptor Kit (Homo sapiens), P10721 [V559D]; settings: Compound concentration 1000.0 nM
[10] = target: Tyrosine-protein kinase receptor UFO (Homo sapiens) (UniProt P30530); settings: Compound concentration 1000.0 nM
[11] = target: Sodium-dependent noradrenaline transporter (Homo sapiens) (UniProt P23975); experiment: norepinephrine transporter (h) Eurofins-Cerep binding assay; design: ligand concentration 1 nM; settings: filed as antagonist, Compound concentration 10.0 uM
[12] = tested on: Epidermal growth factor receptor (Homo sapiens), P00533 [L861Q]; settings: Compound concentration 1000.0 nM
[13] = target: Dual specificity tyrosine-phosphorylation-regulated kinase 2 (Homo sapiens) (UniProt Q92630); settings: Compound concentration 1000.0 nM
[14] = species on record: Rattus norvegicus; settings: Compound concentration 10.0 uM
[15] = tested on: Tyrosine-protein kinase ABL1 (Homo sapiens), P00519 [F317I]; settings: Compound concentration 1000.0 nM
[16] = target: Calcium/calmodulin-dependent protein kinase type 1B (Homo sapiens) (UniProt Q6P2M8); settings: Compound concentration 1000.0 nM
[17] = target: Non-receptor tyrosine-protein kinase TYK2 (Homo sapiens) (UniProt P29597); settings: Compound concentration 1000.0 nM
[18] = target: MAO-B (amine oxidase [flavin-containing] B) (Homo sapiens, UniProt P27338); experiment: MAO-B (h) recombinant enzyme Eurofins-Cerep enzyme and uptake assay; design: incubation time 60 min, incubation temperature 37°C, substrate/stimulus/tracer D-Luciferin derivative (4 µM); settings: probe D-Luciferin derivative (4 µM), compound concentration 10 uM, read-out: % Inhibition of Control Values (Mean n=2)
[19] = target: Homeodomain-interacting protein kinase 4 (Homo sapiens) (UniProt Q8NE63); settings: Compound concentration 1000.0 nM
[20] = target: Serine/threonine-protein kinase 32C (Homo sapiens) (UniProt Q86UX6); settings: Compound concentration 1000.0 nM
[21] = tested on: Tyrosine-protein kinase ABL1 (Homo sapiens), P00519 [Y253F]; settings: Compound concentration 1000.0 nM
[22] = target: D(1A) dopamine receptor (Homo sapiens) (UniProt P21728); experiment: D1 (h) Eurofins-Cerep binding assay; design: ligand concentration 0.3 nM; settings: filed as antagonist, Compound concentration 10.0 uM
[23] = target: Tyrosine-protein kinase JAK2 (Homo sapiens) (UniProt O60674); settings: Compound concentration 1000.0 nM
[24] = target: Glycogen synthase kinase-3 alpha (Homo sapiens) (UniProt P49840); settings: Compound concentration 1000.0 nM
[25] = tested on: Receptor-type tyrosine-protein kinase FLT3 (Homo sapiens), P36888 [D835H]; settings: Compound concentration 1000.0 nM
[26] = target: Dual specificity protein kinase CLK1 (Homo sapiens) (UniProt P49759); settings: Compound concentration 1000.0 nM
[27] = target: Inhibitor of nuclear factor kappa-B kinase subunit epsilon (Homo sapiens) (UniProt Q14164); settings: Compound concentration 1000.0 nM
[28] = target: Receptor-interacting serine/threonine-protein kinase 4 (Homo sapiens) (UniProt P57078); settings: Compound concentration 1000.0 nM
[29] = target: Sodium-dependent serotonin transporter (Homo sapiens) (UniProt P31645); settings: Compound concentration 10.0 uM
[30] = target: Phosphatidylinositol 3-kinase C2 domain-containing subunit gamma (Homo sapiens) (UniProt O75747); settings: Compound concentration 1000.0 nM
[31] = tested on: Phosphatidylinositol 4,5-bisphosphate 3-kinase catalytic subunit alpha isoform (Homo sapiens), P42336 [M1043I]; settings: Compound concentration 1000.0 nM
[32] = target: Fibroblast growth factor receptor 4 (Homo sapiens) (UniProt P22455); settings: Compound concentration 1000.0 nM
[33] = target: Ribosomal protein S6 kinase alpha-5 (Homo sapiens) (UniProt O75582); settings: Compound concentration 1000.0 nM
[34] = target: Ankyrin repeat and protein kinase domain-containing protein 1 (Homo sapiens) (UniProt Q8NFD2); settings: Compound concentration 1000.0 nM
[35] = target: 5-hydroxytryptamine receptor 1B (Homo sapiens) (UniProt P28222); settings: Compound concentration 10.0 uM
[36] = target: T1, 5-hydroxytryptamine receptor 3A (Homo sapiens) (UniProt P46098); settings: Compound concentration 10.0 uM
T1 sequence (whole entry): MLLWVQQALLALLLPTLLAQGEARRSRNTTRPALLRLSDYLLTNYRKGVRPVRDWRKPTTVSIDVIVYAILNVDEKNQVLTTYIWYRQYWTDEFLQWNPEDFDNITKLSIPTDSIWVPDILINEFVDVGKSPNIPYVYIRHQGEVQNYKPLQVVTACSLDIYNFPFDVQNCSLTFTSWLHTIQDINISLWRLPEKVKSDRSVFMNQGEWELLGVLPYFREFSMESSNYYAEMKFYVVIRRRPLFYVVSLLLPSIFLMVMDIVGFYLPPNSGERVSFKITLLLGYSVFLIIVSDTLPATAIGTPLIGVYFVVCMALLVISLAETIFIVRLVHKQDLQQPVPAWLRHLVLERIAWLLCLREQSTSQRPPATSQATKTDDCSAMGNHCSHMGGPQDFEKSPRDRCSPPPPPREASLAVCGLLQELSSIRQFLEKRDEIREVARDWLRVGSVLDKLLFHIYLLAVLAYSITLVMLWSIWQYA

[37] = target: Serine/threonine-protein kinase PLK2 (Homo sapiens) (UniProt Q9NYY3); settings: Compound concentration 1000.0 nM
[38] = target: Ephrin type-A receptor 6 (Homo sapiens) (UniProt Q9UF33); settings: Compound concentration 1000.0 nM

Epithelial discoidin domain-containing receptor 1 (Homo sapiens), sequence (Q08345 whole entry, the tested form may be a part): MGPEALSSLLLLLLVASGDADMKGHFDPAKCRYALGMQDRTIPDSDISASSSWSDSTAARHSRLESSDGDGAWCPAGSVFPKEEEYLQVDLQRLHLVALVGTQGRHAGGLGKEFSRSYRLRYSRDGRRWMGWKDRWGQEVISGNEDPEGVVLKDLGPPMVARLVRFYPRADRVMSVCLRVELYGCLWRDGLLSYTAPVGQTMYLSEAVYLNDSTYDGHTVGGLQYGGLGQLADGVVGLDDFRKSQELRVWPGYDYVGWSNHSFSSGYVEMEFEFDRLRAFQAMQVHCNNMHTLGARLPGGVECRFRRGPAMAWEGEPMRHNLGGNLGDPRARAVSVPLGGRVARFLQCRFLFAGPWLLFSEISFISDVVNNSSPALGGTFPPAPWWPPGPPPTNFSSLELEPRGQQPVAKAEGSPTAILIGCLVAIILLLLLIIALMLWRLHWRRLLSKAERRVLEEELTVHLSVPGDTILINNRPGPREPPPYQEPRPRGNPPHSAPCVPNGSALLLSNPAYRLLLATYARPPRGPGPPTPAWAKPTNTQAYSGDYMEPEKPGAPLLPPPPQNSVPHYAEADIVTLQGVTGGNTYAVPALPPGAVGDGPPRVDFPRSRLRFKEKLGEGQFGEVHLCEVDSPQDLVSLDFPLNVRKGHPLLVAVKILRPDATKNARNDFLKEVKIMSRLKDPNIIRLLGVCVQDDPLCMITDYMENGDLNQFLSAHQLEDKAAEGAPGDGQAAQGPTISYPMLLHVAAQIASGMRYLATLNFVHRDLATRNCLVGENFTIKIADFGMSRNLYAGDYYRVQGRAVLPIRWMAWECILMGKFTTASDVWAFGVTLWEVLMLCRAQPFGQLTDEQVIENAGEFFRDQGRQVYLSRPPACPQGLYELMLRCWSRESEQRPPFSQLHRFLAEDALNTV
Tyrosine-protein kinase JAK2 (Homo sapiens), sequence (O60674 whole entry): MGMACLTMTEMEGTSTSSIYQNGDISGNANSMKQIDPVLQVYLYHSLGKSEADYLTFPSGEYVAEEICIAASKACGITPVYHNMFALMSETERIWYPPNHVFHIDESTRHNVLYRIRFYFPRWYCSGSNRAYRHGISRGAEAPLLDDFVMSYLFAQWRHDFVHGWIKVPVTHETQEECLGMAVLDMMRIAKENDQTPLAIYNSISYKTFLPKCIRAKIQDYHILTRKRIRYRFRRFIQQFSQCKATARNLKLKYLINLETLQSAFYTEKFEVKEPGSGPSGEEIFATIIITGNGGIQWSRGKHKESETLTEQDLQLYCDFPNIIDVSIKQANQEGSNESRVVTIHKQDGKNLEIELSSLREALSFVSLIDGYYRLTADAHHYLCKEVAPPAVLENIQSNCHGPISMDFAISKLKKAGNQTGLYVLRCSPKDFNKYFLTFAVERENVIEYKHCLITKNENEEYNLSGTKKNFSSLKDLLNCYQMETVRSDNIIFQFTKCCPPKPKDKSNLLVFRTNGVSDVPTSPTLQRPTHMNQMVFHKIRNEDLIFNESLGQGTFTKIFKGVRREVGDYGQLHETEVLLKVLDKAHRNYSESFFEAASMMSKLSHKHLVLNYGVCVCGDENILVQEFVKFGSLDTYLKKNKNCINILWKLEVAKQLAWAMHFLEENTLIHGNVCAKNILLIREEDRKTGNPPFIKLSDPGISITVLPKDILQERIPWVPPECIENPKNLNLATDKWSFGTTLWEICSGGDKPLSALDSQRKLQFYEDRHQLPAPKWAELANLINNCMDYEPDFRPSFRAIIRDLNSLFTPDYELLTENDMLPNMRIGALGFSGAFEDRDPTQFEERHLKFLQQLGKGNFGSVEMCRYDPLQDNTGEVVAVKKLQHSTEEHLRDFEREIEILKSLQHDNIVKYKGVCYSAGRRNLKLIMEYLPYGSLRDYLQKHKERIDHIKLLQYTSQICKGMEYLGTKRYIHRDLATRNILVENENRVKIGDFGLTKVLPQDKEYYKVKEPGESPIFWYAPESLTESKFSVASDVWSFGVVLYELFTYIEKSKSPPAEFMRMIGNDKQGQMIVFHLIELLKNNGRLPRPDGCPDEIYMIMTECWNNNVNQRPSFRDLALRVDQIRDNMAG
Glycogen synthase kinase-3 alpha (Homo sapiens), sequence (P49840 2-483 limits assumed): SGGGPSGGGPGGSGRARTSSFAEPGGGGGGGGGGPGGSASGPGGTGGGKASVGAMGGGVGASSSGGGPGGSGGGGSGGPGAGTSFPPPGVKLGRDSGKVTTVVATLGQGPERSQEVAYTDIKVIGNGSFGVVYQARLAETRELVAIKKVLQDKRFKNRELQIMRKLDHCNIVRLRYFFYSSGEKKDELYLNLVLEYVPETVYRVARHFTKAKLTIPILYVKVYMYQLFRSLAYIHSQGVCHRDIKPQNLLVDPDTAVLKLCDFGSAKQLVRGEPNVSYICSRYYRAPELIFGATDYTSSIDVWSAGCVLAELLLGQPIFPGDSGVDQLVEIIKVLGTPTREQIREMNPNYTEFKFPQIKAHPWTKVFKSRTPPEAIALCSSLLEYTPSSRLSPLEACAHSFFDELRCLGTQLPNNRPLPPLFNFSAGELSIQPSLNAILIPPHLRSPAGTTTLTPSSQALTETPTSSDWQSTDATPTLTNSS
Inhibitor of nuclear factor kappa-B kinase subunit epsilon (Homo sapiens), sequence (Q14164 whole entry): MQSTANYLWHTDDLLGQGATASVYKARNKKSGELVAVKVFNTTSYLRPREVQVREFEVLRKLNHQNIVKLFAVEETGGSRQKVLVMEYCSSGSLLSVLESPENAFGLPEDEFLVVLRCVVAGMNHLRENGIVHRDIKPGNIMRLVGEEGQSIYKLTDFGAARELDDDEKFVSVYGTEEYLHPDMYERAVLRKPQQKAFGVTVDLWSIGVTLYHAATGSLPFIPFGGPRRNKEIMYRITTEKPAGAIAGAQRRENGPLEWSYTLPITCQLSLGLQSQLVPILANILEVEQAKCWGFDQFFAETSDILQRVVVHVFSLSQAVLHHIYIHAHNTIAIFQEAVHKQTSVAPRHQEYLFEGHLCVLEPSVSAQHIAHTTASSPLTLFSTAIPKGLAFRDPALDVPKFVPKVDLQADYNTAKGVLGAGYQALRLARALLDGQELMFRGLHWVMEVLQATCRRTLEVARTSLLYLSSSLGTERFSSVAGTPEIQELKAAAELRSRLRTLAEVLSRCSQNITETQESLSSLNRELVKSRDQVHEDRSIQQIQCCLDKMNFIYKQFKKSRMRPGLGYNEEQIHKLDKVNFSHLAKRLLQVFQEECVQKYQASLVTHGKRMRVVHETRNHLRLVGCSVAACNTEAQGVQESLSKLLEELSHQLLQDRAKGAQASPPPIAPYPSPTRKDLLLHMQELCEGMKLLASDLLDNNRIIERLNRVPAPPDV
Tyrosine-protein kinase receptor UFO (Homo sapiens), sequence (P30530 whole entry): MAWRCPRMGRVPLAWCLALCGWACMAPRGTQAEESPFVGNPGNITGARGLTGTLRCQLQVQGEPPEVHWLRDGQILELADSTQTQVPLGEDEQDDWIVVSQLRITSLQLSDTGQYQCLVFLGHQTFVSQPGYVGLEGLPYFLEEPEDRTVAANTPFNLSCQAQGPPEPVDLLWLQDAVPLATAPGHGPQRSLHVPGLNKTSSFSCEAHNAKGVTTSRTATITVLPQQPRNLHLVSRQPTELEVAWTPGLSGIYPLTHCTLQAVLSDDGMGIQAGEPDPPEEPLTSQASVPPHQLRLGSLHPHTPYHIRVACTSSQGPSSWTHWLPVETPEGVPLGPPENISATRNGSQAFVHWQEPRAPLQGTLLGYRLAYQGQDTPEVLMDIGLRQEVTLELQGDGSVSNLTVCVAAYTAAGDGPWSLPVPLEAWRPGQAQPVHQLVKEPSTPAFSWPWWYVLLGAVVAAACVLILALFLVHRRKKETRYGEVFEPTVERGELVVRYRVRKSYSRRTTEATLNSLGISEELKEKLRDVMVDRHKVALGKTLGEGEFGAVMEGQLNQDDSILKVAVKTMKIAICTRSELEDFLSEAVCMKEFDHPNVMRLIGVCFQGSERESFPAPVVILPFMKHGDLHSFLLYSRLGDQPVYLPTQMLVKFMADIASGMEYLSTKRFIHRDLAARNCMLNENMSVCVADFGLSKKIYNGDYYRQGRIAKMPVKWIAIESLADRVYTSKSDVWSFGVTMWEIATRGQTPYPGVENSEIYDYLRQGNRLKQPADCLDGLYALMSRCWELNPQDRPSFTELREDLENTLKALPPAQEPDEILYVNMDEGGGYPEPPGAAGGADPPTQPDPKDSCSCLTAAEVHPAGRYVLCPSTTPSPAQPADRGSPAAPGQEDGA
Ribosomal protein S6 kinase alpha-2 (Homo sapiens), sequence (Q15349 whole entry): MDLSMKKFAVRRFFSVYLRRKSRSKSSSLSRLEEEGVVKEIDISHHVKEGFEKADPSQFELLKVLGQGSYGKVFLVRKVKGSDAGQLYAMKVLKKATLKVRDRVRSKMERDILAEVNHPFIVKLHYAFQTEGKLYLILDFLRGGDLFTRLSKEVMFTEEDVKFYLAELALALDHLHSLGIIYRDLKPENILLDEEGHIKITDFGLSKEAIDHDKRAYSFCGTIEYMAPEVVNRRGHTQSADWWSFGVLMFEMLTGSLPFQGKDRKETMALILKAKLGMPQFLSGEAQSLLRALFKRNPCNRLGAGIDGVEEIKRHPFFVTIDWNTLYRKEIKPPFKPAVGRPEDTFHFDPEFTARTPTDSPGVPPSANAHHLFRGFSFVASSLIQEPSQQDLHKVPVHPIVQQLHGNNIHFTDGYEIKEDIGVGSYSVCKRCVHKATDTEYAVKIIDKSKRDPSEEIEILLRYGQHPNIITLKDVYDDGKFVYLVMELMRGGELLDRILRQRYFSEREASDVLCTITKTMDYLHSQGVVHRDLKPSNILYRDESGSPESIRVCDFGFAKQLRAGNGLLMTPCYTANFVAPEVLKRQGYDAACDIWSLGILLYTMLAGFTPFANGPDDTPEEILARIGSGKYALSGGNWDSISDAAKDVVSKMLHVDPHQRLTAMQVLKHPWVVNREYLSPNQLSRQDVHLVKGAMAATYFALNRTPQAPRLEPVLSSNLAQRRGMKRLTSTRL

O=C(NS(=O)(=O)c1ccc(NCC2CCOCC2)c([N+](=O)[O-])c1)c1ccc(N2CCN(Cc3ccc(C(F)(F)F)cc3-c3ccc(Cl)cc3)CC2)cc1Oc1cnc2[nH]ccc2c1 [A-1210227]
-4.3%: inhibition at 60 min, 10 µM [18]
inactive: residual activity [1] 71% | residual activity [2] 100% | residual activity [3] 85% | residual activity [4] 76% | residual activity [5] 100% | residual activity [7] 100% | residual activity [8] 100% | residual activity [9] 100% | residual activity [10] 88% | residual activity [12] 93% | residual activity [13] 100% | inhibition [14] 11.6% | residual activity [15] 87% | residual activity [17] 73% | residual activity [19] 98% | residual activity [20] 55% | residual activity [21] 96% | residual activity [23] 90% | residual activity [24] 100% | residual activity [25] 100% | residual activity [26] 69% | residual activity [27] 65% | residual activity [28] 75% | inhibition [29] -8.19% | residual activity [30] 80% | residual activity [31] 51% | residual activity [32] 96% | residual activity [33] 97% | residual activity [34] 77% | inhibition [35] -6.15% | inhibition [36] 8.67% | residual activity [37] 100% | residual activity [38] 100%
active: residual activity [16] 0%
-32.2%: % Inhibition of Control Values (Mean n=2) [6]
-14.5%: % Inhibition of Control Specific Binding (Mean n=2) [11]
6.4%: % Inhibition of Control Specific Binding (Mean n=2) [22]

CO[C@H]1CC[C@H](CNc2ccc(S(=O)(=O)NC(=O)c3ccc(N4CCN(CC5=C(c6ccc(Cl)cc6)CC(C)(C)CC5)CC4)cc3Oc3cnc4[nH]ccc4c3)cc2[N+](=O)[O-])CC1 [A-1211212]
inactive: residual activity [1] 64% | residual activity [2] 100% | residual activity [3] 88% | residual activity [4] 65% | residual activity [5] 99% | residual activity [7] 100% | residual activity [8] 71% | residual activity [9] 99% | residual activity [10] 94% | residual activity [12] 70% | residual activity [13] 100% | inhibition [14] 41.5% | residual activity [15] 100% | residual activity [16] 81% | residual activity [17] 67% | residual activity [20] 54% | residual activity [21] 100% | residual activity [23] 89% | residual activity [24] 100% | residual activity [25] 78% | residual activity [26] 92% | residual activity [27] 100% | residual activity [28] 65% | inhibition [29] 25.1% | residual activity [30] 72% | residual activity [31] 74% | residual activity [32] 87% | residual activity [33] 65% | residual activity [34] 81% | inhibition [35] 6.23% | inhibition [36] 7.56% | residual activity [37] 100% | residual activity [38] 99%
active: residual activity [19] 4.4%
16.9%: inhibition at 60 min, 10 µM [18]
-72.6%: % Inhibition of Control Values (Mean n=2) [6]
0.7%: % Inhibition of Control Specific Binding (Mean n=2) [22]
16.2%: % Inhibition of Control Specific Binding (Mean n=2) [11]
